# Test results published in US20170157102A1, “USE OF PERHEXILINE” (CONSIGLIO NAZIONALE DELLE RICERCHE, priority 2014, published 2017).
# Like-named read-outs stand apart in the source and are kept apart here.
# Assays:
# [1] = test system: adult parasites (schistosomes); details: treatment of adult parasites (Redman et al.); cited from earlier work
# S. mansoni adult worms = test: microbe, parasite or virus in culture; type: cell-based, Schistosoma mansoni
# Description: FIG. 1. Adult worms (8 weeks old, S. mansoni) in vitro survival following overnight treatment with 10 μM PHX, 10 μM Gambogic Acid, 10 μM Praziquantel (PZQ) or DMSO (vehicle). Parasites death was assessed by optical examination each day using the following criteria: reduction of motility, tegumental damages and darker appearance. Data shown are the means of results of at least three experiments.
# (§1) Seven-eight male worms or 4-5 worm pairs were recovered under aseptic conditions from infected mice by perfusion of mesenteric veins at 28 days (juvenile) or 56-days post infection (adult pairs) or 2-4 months post-infection (adult males). After washing, the worms were transferred into a 35 mm plates containing 3 mL of DMEM complete worms media and incubated at 37° C. in a humid atmosphere containing 5% CO2 with drugs overnight. Next, the worms were washed 3 times with drug-free medium and were incubated for 5 days at 37° C./5% CO2 and monitored daily under a stereo microscope for mobility, tegumental damage, viability and egg output (worm pairs). The experiment was repeated at least three times.
# Male adult worms (7-8 worms/sample) obtained from infected mice were cultured at 37° C., 5% CO2 in DMEM complete medium (10% FBS) in presence of different concentrations of PHX (3-10 μM) and for variable time (12h to 5 days). For all experiments Gambogic Acid (1-10 μM) and PZQ (1-10 μM) were used as positive controls while DMSO was used as negative control. […] Parasites death was assessed by optical examination each day using the following criteria: reduction of motility, tegumental damages and darker appearance.
# [2] = test system: S. mansoni adult worm pairs; test: Egg production of adult worm pairs in vitro; type: cell-based, Schistosoma mansoni; details: 5 μM overnight, vs DMSO control
# Description: as §1
# In order to test the effect of PHX on egg production, adult worm pairs were treated overnight using the sub lethal dose of 5 μM. Total number of eggs laid by female parasites was determined 3 and 6 days after the treatment. To do so, the medium containing the eggs was harvested and briefly centrifuged. The pellet containing the eggs was re-suspended in 500 μl of saline solution and the egg number was determined by microscopy analysis.
# S. mansoni = test: In vivo efficacy in mice infected with S. mansoni (total worm count, hepatic egg burden); details: two weeks after treatment
# Description: FIG. 3. Effect of PHX on total worm count (A) and egg burdens (B) in mice infected with S. mansoni. One-way analysis of variance (one-way Anova) was used to compare means of the samples. The p-values are indicated. PZQ (Praziquantel, oral administration, 500 mg/kg), PERHEX LOW (PHX, oral administration, 23 mg/kg), PERHEX HIGH (PHX, oral administration, 70 mg/kg).
# Female ICR (CD-1) outbred and C57BL/6, 4-7 weeks old mice (Harlan Laboratories) were housed under controlled conditions [(22±2)° C.; (65±15)% relative humidity; 12/12 h light/dark cycle]. The mice received standard food and water ad libitum. Female ICR (CD-1) outbred mice were infected transcutaneously with approximately 80 (for mixed infection) or 200 (single sex) S. mansoni cercariae for life cycle maintainance and in vitro worm assays. For in vivo experiments, C57BL/6 mice were infected with 140 cercariae and administered with selected compounds.
# C57B/L6 inbred female mice (5-6 weeks old) were divided in 4 groups of 7 animals each and treated with DMSO (control), PZQ or two dosages of PHX. All compounds were administered orally (vehicle is 2.5% Cremophor EL) 42 days post infection. The amount of PHX administered (23 mg/kg and 70 mg/kg) was guided by available information of therapeutic dose in use for angina treatment (Ashrafian H., 2007); PZQ was used at the standard dose (500 mg/Kg). Toxicity of compounds (e.g., death and behavioral changes) was assessed daily during and after treatment until the time of euthanasia. At 56 days post infection, mice were euthanized with an intraperitoneal injection of Tiletamina/Zolazepam ([…])+Xylazina (100 mg/kg) and adult worms perfused as described above.
# Compound efficacy in vivo, measured using a number of criteria, was compared to that of the anti-schistosomal drug, PZQ. The criteria include the numbers of male and female worms (total worm count) recovered by perfusion and hepatic egg burden (number of eggs in the liver). To recover eggs trapped in liver, whole livers from individual mice were excised, weighed and incubated in a 4% KOH solution over night at 37° C. Eggs were counted under a dissecting microscope as previously described (Cheever, A. W., 1968).
# Based on the strong in vitro effects of PHX against larvae, juvenile (4 weeks old) and adult worms, the in vivo efficacy of the drug was tested in mice infected with S. mansoni. Based on the previous cardiovascular studies of the drug (Ashrafian H., 2007), two different concentrations of PHX were used: a low dose (23 mg/Kg) and a high dose (70 mg/Kg). […] Two weeks after the treatment, mice were sacrificed and the total worm count and egg burden (number of eggs in the liver) were determined (FIG. 3). […]
# [3] = cited from earlier work
# [4] = test system: S. mansoni newly transformed schistosomula; test: CellTiterGlo luminescent viability assay on schistosomula; details: 24 h; for CC50: values of two independent experiments
# Description: Cercariae, shed from infected snails, were subsequently converted to schistosomula by mechanical transformation using an optimised version of the protocol of Brink et al., 1977 previously described (Protasio et al. 2013). Briefly, the cercarial suspension (approximately 50.000 cercariae) was placed in a glass 40 ml tube on ice for 60 minutes in order to reduce parasite motility. Tail detachment was obtained by shaking cercariae vigorously for approximately 30 seconds in a vortex mixer before passing these through a 22G syringe needle approximately 10-12 times. Next, the separation of heads/schistosomula and tails was obtained by placing the heads plus tails suspension on 4-5 ml of ice-cold 70% Percoll in tube and centrifugating (600×g) for 10 minutes at 4° C. Finally, the schistomula preparations were washed twice (with DMEM complete media lacking FBS) and microscope examination was used to assess the quantity and quality of purified schistosomula (less than 1% tails). Schistosomula were cultured at 37° C. in 6 wells tissue culture plates containing 3 ml schistosomula complete media in an atmosphere of 5% CO2 for 24 hr before any further experimental manipulations proceeded. Negligible parasite death occurred in this media during the 24 hr culturing period. Following this, schistosomula were aliquoted into flat-bottom 384-well black-sided for compound assays.
# Compounds are stored as solution of 100% DMSO at −20 ° C. under inert atmosphere. Intermediate storage microplates, in the 384 well/plate format, are prepared on demand and stored in the same controlled environment as the stock solutions. Intermediate microplate stored compounds are transferred to assay plates by the acoustic droplet ejection technology (ATS-100, EDC Biosystems USA) which ensures a safe, contactless, pre-dilution free delivery. The test set was transferred to 384 well, black, tissue culture treated destination plate. […]
# The plate set was let to incubate with the compounds at 37° C./5% CO2 for 24 hours. […] The readout, luminescence based, was carried out by a CCD based detector (ViewLux, PerkinElmer USA). […]
# [5] = test system: S. mansoni juvenile worms (4 weeks old); type: cell-based, Schistosoma mansoni; details: 10 μM overnight, at 5 days
# Description: FIG. 2. Juvenile worms (4 weeks old, S. mansoni) in vitro survival following overnight treatment with 10 μM PHX, 10 μM Gambogic Acid, 10 μM Praziquantel (PZQ) or DMSO (vehicle). Parasites death was assessed by optical examination each day using the following criteria: reduction of motility, tegumental damages and darker appearance. Data shown are the means of results of at least three experiments.
# as §1
# Juvenile worms (4 weeks old parasites) were also tested at the same conditions reported above. Following over night incubation of PHX (10 μM), viability of parasites was reduced by 80% after 5 days of observation (FIG. 2). […]
# [6] = test system: S. mansoni juvenile worms; details: at 8 days; previous report (Livia-Pica et al, 2004); cited from earlier work
# S. mansoni worms = details: juvenile 4 weeks after infection vs adult 6 or 7 weeks, mice (Pica-Mattoccia et al., 2004); cited from earlier work
# [7] = HIGH dose 70 mg/Kg oral single dose
# [8] = LOW dose 23 mg/Kg oral single dose
smiles,measurement,setting,value
Cl.N [NH4Cl],rate of BODIPY FL C5-sphyngomyelin breakdown,[1],no decrease
CNCCCN1c2ccccc2CCc2ccccc21 [desipramine],rate of BODIPY FL C5-sphyngomyelin breakdown,[1],no decrease
"C1CCC(C(CC2CCCCN2)C2CCCCC2)CC1 (stereo not shown) [Perhexiline, 2-(2,2-dicyclohexylethyl)piperidine]",effect on viability of adult worms,S. mansoni adult worms; 3 μM,no effect
same,inhibition at 5 µM,"S. mansoni adult worms; Schistosoma mansoni, read-out: reduced viability of adult worms",~50%
same,viability of adult parasites,"S. mansoni adult worms; overnight incubation 10 μM, after 5 days",statistically significant decreased viability
same,reduction in egg production,[2]; 3 days after treatment,around 60%
same,reduction in egg production,[2]; 6 days after treatment,around 60%
same,decrease in total worm counts,S. mansoni; [7],63%
same,reduction of egg burden (number of eggs in the liver),S. mansoni; [7],60%
same,decrease in total worm counts,S. mansoni; [8],35%
same,reduction of egg burden (number of eggs in the liver),S. mansoni; [8],50%
same,inter-individual differences in apparent oral clearance,[3]; CYP2D6 polymorphisms,approximately 100 fold
same,plasma half-life,[3]; most subjects,24 to 48 h
same,plasma half-life,[3]; poor metabolizers (CYP2D6),up to 40 days
same,defined therapeutic range of plasma concentration,[3]; range that avoids hepatotoxicity and peripheral neuropathy (Horowitz et al 1986),0.15-0.6 mg 1^−1
same,rate of BODIPY FL C5-sphyngomyelin breakdown,[1],no decrease
same,CC50,"[4]; Schistosoma mansoni, read-out: CC50 of newly transformed schistosomula, 24 h, 0.019-50 μM, four parameter fit",9.56 µM
same,CC50,"[4]; read-out: CC50 of newly transformed schistosomula, 0.019-50 μM, four parameter fit",12.4 µM
same,cytotoxicity in the initial screen,"[4]; single concentration 10 μM, threshold 70% cytotoxicity, scaled DMSO 0% / gambogic acid 100%",positive compound
O=C(C1CCCCC1)N1CC(=O)N2CCc3ccccc3C2C1 (stereo not shown) [Praziquantel],survival rate of juvenile worms,[5],50%
same,survival of juvenile worms,[6],approximately 80%
same,ED50 against juvenile worms relative to adult worms,S. mansoni worms,at least 30 times
